Reference: US20180209956A1, “HTS Assay for Identifying Small Molecule Inhibitors of RAD52 and Uses of Identified Small Molecule Inhibitors for Treatment and Prevention of BRCA-Deficient Malignancies” (University of Iowa Research Foundation, priority 2015, published 2018)
Structures can show the parent of a compound that is named as a salt. Where two headings read alike, the source gives them in different places.

Tests used:
[1] = target: T1, RAD52-mediated ssDNA annealing (Homo sapiens, UniProt P43351); assay: FRET-based RAD52-mediated ssDNA annealing assay; assay type: biochemical; settings: Table 1, read-out: IC50 Annealing Extent
T1 construct: made in house
T1 sequence (P43351 1-418): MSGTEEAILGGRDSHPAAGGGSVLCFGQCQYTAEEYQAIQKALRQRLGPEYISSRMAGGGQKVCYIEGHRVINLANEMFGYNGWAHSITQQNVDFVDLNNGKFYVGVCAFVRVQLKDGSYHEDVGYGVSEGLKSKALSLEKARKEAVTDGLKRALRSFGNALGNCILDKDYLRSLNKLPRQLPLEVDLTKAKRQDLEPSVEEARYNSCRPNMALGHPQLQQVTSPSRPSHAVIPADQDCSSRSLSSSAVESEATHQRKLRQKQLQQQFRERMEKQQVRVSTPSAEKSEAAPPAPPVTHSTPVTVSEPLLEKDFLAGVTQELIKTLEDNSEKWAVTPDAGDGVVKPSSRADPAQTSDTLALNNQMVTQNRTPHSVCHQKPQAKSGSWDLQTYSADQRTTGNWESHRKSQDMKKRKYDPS
Description: These assays utilize two complementary single stranded 28-nucleotide-long substrates, which contain either Cy3 (T-28) or Cy5 (P-28) incorporated into the middle of the respective DNA strand. When the substrates are annealed by RAD52, the Cy3 and Cy5 dyes are separated by 3 base pairs and yield a high FRET signal (FIG. 2 Supplement 2). […] The annealing reactions were initiated by mixing two half reactions and observing the change in FRET over time in the presence of varying concentrations of small molecules. An increasing FRET value over time indicates formation of the dsDNA duplex which brings the two dyes in close proximity (FIG. 2 Supplement 2). Fitting the annealing data to a double exponential allowed us to calculate and compare the final extent of annealing at varying concentrations of each compound compared to RAD52 alone. We plotted the final extent of annealing vs the concentration of the compound and calculated an IC50 of annealing inhibition.
Annealing of complementary oligonucleotides by RAD52 was monitored under identical conditions as the binding assays described above. For each assay, the reaction master mixture containing 8 nM RAD52 protein in the presence and absence of the compounds at varying concentrations was prepared at room temperature and divided into two half reactions. Following baseline buffer and protein measurements, 0.5 nM of T-28 ssDNA substrate was added to the reaction cuvette and the signal was allowed to stabilize. The annealing reaction was initiated upon addition of the second half-reaction pre-incubated with 0.5 nM P-28 ssDNA substrate. The fluorescence of Cy3 and Cy5 were measured simultaneously over the reaction time course (500 s). FRETapp values were calculated as an average of three or more independent annealing reactions plotted against time (s). The average FRET values were fitted to a double exponential to calculate the final extent of annealing using Graphpad Prism4 software. The calculated annealing extent was plotted as a function of compound concentration and fitted to the same model as we used to determine IC50 values for the inhibition of DNA annealing.

[2] = target: T2, RAD52-ssDNA interaction (Homo sapiens, UniProt P43351); assay: FRET-based ssDNA binding and wrapping assay (RAD52-Cy3-dT30-Cy5 complex); settings: for IC50: read-out: IC50 (DNA binding); for IC50 range for ssDNA binding and wrapping, in words: summary of Table 1
T2 construct: made in house
T2 sequence (P43351 1-418): T1 sequence (P43351 1-418)
Description: We titrated increasing amounts of each compound into a cuvette containing preformed stoichiometric RAD52-Cy3-dT30-Cy5 complexes (1 nM Cy3-dT30-Cy5 and 8 nM RAD52). […] At each concentration of the compound, the FRET signal was adjusted for the change in Cy3 and Cy5 fluorescence in the presence of the compound, but in the absence of protein.
FRET-based DNA binding and annealing assays: FRET-based ssDNA binding, dsDNA binding, and annealing assays were carried out as previously described (Grimme et al., 2010, Grimme and Spies, 2011) using Cary Eclipse spectrofluorimeter (Varian) at 25° C. in buffer containing 30 mM Tris-Acetate pH7.5, 1 mM DTT, and 0.1 mg/mL BSA. Cy3 dye was excited at 530 nm and its emission was monitored at 565 nm. Emission of Cy5 acceptor fluorophore excited through the energy transfer from Cy3 donor is monitored at 660 nm simultaneously with emission of Cy3 dye. Both the excitation and the emission slit widths were set to 10 nm.
All experiments were performed in triplicates, and the data are shown as averages and standard deviations for three independent measurements. To remove possible experimental artifacts associated with chromogenic or fluorogenic compounds, as well as with the compounds that may quench or enhance Cy3 or Cy5 fluorescence, we also performed control titrations whereby we titrated each compound into 1 nM Cy3-dT30-Cy5 in the absence of RAD52. For each compound concentration we subtracted the difference in the FRET signal in the presence and absence of the compound from the respective FRET signal in the presence of RAD52. The FRET signal corrected for the compound fluorescence was calculated using the equation: […]
as previously described (Grimme et al., 2010, Grimme and Spies, 2011) and plotted as a function of compound concentration and fitted to the following inhibition model”
where FRET0 is the initial FRET value of RAD52-ssDNA complex in the absence of the compound and FRETmin is the FRET value at complete inhibition. FRET values were calculated as an average of three or more independent annealing reactions plotted against the concentration of the compound. Inhibition of the RAD52-dsDNA interaction was assayed in a similar experiment, except the stoichiometric complexes containing 1 nM molecules of Cy3-Oligo28-Cy5 duplex DNA and 10 nM RAD52. […] In all experiments, the FRET values for each data point were corrected for the effects of the compounds on the respective substrate in the absence of RAD52.

[3] = Solubility observed during testing; assay type: physicochemical
[4] = Table 1, ssDNA, 1 nM Cy3-dT30-Cy5, 8 nM RAD52
[5] = Table 2, methods similar to Example 1

Row | FRET value at saturation ([2]; Table 2) | IC50 [2, 5] [nM] | Compound | FRET value at saturation ([2]; Table 1) | IC50 [2, 4] [nM] | IC50 range for ssDNA binding and wrapping, in words [2] | other results
1 | – | – | C=C1c2cccc(O)c2C(=O)C2=C(O)[C@]3(O)C(=O)C(C(N)=O)=C(O)[C@@H](N(C)C)[C@@H]3[C@@H](O)[C@H]12 [Compound 3, Methacycline Hydrochloride, reference compound] | 0.47 ± 0.01 | 2000 ± 170 | micro-molar range | IC50 [1]: 3800 ± 200 nM
2 | – | – | O=C(O[C@@H]1Cc2c(O)cc(O)cc2O[C@@H]1c1ccc(O)c(O)c1)c1cc(O)c(O)c(O)c1 [Compound 5, (−)-Epicatechin gallate] | 0.41 ± 0.004 | 255 ± 16 | nano-molar range | IC50 [1]: 20000 ± 700 nM
3 | – | – | Oc1cc(O)c2c(c1)O[C@H](c1ccc(O)c(O)c1)[C@H](O)C2 [Compound 7, (−)-Epicatechin] | 0.51 ± 0.01 | 1450 ± 110 | micro-molar range | –
4 | – | – | NCCc1cc(O)c(O)cc1O [Compound 14, Oxidopamine] | 0.50 ± 0.01 | 779 ± 51 | nano-molar range | –
5 | – | – | O=C1c2ccc(O)c(O)c2C(=O)c2c(O)ccc(O)c21 [Compound 15, Quinalizarin] | 0.51 ± 0.01 | 563 ± 40 | nano-molar range | IC50 [1]: 5600 ± 600 nM
6 | – | – | COc1cc(N)c(Cl)cc1C(=O)N[C@H]1CCN(CCCOc2ccc(F)cc2)C[C@H]1OC [Compound 16, Cisapride Monohydrate, reference compound] | 0.50 ± 0.01 | – | – | –
7 | – | – | CC1(C)C(=O)C=C[C@@]2(C)C1=C(O)C(=O)[C@]1(C)[C@@H]2CC[C@@]2(C)[C@H](c3ccoc3)C[C@H]3O[C@]321 [Compound 17, Cedrelone] | – | > 300000 | high micro-molar range | –
8 | – | – | O=c1c(O)c(-c2ccc(O)c(O)c2)oc2c(O)c(O)cc(O)c12 [Compound 19, Gossypetin] | 0.49 ± 0.01 | 913 ± 58 | nano-molar range | IC50 [1]: 6000 ± 2300 nM
9 | 0.49 ± 0.01 | 938 ± 12 | Cc1ccc2c(c1)C(=O)CC(O)(C(F)(F)F)O2 (centres unmarked) [Compound R20, 2-hydroxy-6-methyl-2-(trifluoromethyl)-2,3-dihydro-4H-chromen-4-one] | – | – | – | –
10 | 0.483 ± 0.01 | 76000 ± 5570 | O/N=C1/CC(O)(C(F)(F)F)Oc2ccccc21 (centres unmarked) [Compound R21, 2-hydroxy-2-(trifluoromethyl)-2,3-dihydro-4H-chromen-4-one oxime] | – | – | – | –
11 | 0.49 ± 0.01 | 184000 ± 12000 | CC1(C)COC(O)(C(F)(F)F)CC1=O (centres unmarked) [Compound R22, 2-hydroxy-5,5-dimethyl-2-(trifluoromethyl)tetrahydro-4H-pyran-one] | – | – | – | –
12 | 0.39 ± 0.01 | 84100 ± 1040 | CC(O)CC1(O)C(=O)N(C)c2ccccc21 (centres unmarked) [Compound R23, 3-hydroxy-3-(2-hydroxypropyl)-1-methyl-1,3-dihydro-2H-indol-2-one] | – | – | – | –
13 | – | – | CC(C)(O)C1Cc2cc3ccc(=O)oc3cc2O1 (centres unmarked) [Compound R24, 2-(1-hydroxy-1methylethyl)-2,3-dihydro-7H-furo[3,2-g]crhomen-7-one] | – | – | – | IC50 (DNA binding) [2, 5]: No inhibition
14 | 0.45 ± 0.01 | 1600 ± 150 | c1ccc(CSc2nnc3c(n2)OC(c2ccc4c(c2)OCO4)Nc2ccccc2-3)cc1 (centres unmarked) [Compound R25, 6-(1,3-benzodioxol-5-yl)-3-(benzylthio)-6,7-dihydro[1,2,4]triazino[5,6-d][3,1]benzoxazepine] | – | – | – | –
15 | 0.46 ± 0.01 | 1900 ± 500 | CCOc1ccc(C2Nc3ccccc3-c3nnc(SCc4ccccc4)nc3O2)cc1 (centres unmarked) [Compound R26, 3-(benzylthio)-6-(4-ethoxyphenyl)-6,7-dihydro[1,24]triazino[5,6-d][3,1]benzoxazepine] | – | – | – | –
16 | – | – | O=c1c2ccccc2nc(CSc2ncnc3[nH]cnc23)n1-c1cccc(C(F)(F)F)c1 [Compound R27, 2-[(9H-purin-6-ylthio)methyl]-3-[3-(trifluoromethyl)phenyl]-4(3H)-qhinazolinone] | – | – | – | Solubility ([3]; 30 mM Tris-Acetate pH 7.5, 1 mM DTT at 115 μM): Insoluble in 30 mM Tris-Acetate pH 7.5, 1 mM DTT at 115 μM
17 | – | – | CCOc1cc(C(Nc2cc(C)ccn2)c2ccc3ccc(C)nc3c2O)ccc1OC (centres unmarked) [Compound R28, 7-{(3-ethoxy-4-methyoxyphenyl)[(4-methyl-2-pyridinyl)amino]methyl}-2-methyl-8-quinolinol] | – | – | – | Solubility ([3]; 30 mM Tris-Acetate pH 7.5, 1 mM DTT at 10 μM): Insoluble in 30 mM Tris-Acetate pH 7.5, 1 mM DTT at 10 μM
18 | – | – | CCOc1ccccc1NC(=O)c1c(NC(=O)Cc2ccc(OC)cc2)sc2c1CCC2 [Compound R29, N-(2-ethoxyphenyl)-2-{[(4-methoxyphenyl)acetyl]amino)-5,6-dihydro-4H-cyclopenta[b]thiophene-3-carboxamide] | – | – | – | Solubility ([3]; DMSO at 25 mM): Compound is insoluble in DMSO at 25 mM
19 | 0.59 ± 0.01 | 1300 ± 190 | COc1cc(C2C(C(=O)OCC3CCCO3)=C(C)NC3=C2C(=O)CC(C)(C)C3)ccc1O (centres unmarked) [Compound R30, Tetrahydro-2-furanylmethyl 4-(4-hydroxy-3-methoxyphenyl)-2,7,7-trimethyl-5oxo-1,4,5,6,7,8-hexahydro-3-quinolinecarboxylate] | – | – | – | –
20 | 0.45 ± 0.01 | 1250 ± 340 | COc1ccc(C(=O)Nc2ccccc2C(=O)NC(C(=O)Nc2ccccc2)C(C)C)cc1 (centres unmarked) [Compound R32, N-[1-(anilinocarbonyl)-2-methylpropyl]-2-[(4-methoxybenzoyl)amino]benzamide] | – | – | – | –
21 | 0.56 ± 0.01 | 849 ± 210 | COc1cc(/C=N/NC(=O)CCC(C)O)ccc1O (centres unmarked) [Compound R33, 4-hydroxy-N′-(4-hydroxy-3-methoxybenzyliden)pentanohydrazide] | – | – | – | –
22 | – | – | Asiatic Acid [Compound 18] | – | > 800000 | high micro-molar range | IC50 [1]: > 100000 nM
23 | – | – | Rolitetracycline [Compound ‘4’, reference compound] | 0.56 ± 0.04 | 29000 ± 8200 | mid micro-molar range | –
